How the values were obtained:
HLA-A2.1 transgenic mice [1] = conditions: mouse, in vivo
HLA-A2.1 transgenic mice [2] = conditions: mouse, in vivo; remark: listed apart in the source
HLA-A2.1 transgenic mice [3] = conditions: mouse, in vivo; remark: listed apart in the source
human PBMC = format: cell-based

ALSKGVHFV [3_wt]
ELIspot (YES/NO) (HLA-A2.1 transgenic mice [1]): Yes
tetramer response (HLA-A2.1 transgenic mice [2]): medium
Trm (response) (HLA-A2.1 transgenic mice [3]): No
Trm response (HLA-A2.1 transgenic mice [3]): No
Patient response (human PBMC): Yes

AVSKGVHFI [3_neoB]
ELIspot (YES/NO) (HLA-A2.1 transgenic mice [1]): Yes
tetramer response (HLA-A2.1 transgenic mice [2]): medium
Trm response (HLA-A2.1 transgenic mice [3]): No

CLEASFNYV [5_neoA]
ELIspot (YES/NO) (HLA-A2.1 transgenic mice [1]): No
tetramer response (HLA-A2.1 transgenic mice [2]): medium
Trm (response) (HLA-A2.1 transgenic mice [3]): Yes
Trm response (HLA-A2.1 transgenic mice [3]): Yes
Patient response (human PBMC): Yes

FLAGLIAIV [6_neoA]
ELIspot (YES/NO) (HLA-A2.1 transgenic mice [1]): Yes
tetramer response (HLA-A2.1 transgenic mice [2]): high
Trm (response) (HLA-A2.1 transgenic mice [3]): Yes
Trm response (HLA-A2.1 transgenic mice [3]): Yes
Patient response (human PBMC): Yes

FLLNKEMYL [8_wt]
ELIspot (YES/NO) (HLA-A2.1 transgenic mice [1]): Yes
tetramer response (HLA-A2.1 transgenic mice [2]): medium
Trm (response) (HLA-A2.1 transgenic mice [3]): No
Trm response (HLA-A2.1 transgenic mice [3]): No
Patient response (human PBMC): Yes

FMAGLIAIV [6_neoB]
ELIspot (YES/NO) (HLA-A2.1 transgenic mice [1]): Yes
tetramer response (HLA-A2.1 transgenic mice [2]): medium
Trm response (HLA-A2.1 transgenic mice [3]): No

FTAHIQWMV [7_neoB]
ELIspot (YES/NO) (HLA-A2.1 transgenic mice [1]): Yes
tetramer response (HLA-A2.1 transgenic mice [2]): medium
Trm response (HLA-A2.1 transgenic mice [3]): No

GLMWLSYFV [14_neoA]
ELIspot (YES/NO) (HLA-A2.1 transgenic mice [1]): Yes
tetramer response (HLA-A2.1 transgenic mice [2]): medium
Trm (response) (HLA-A2.1 transgenic mice [3]): No
Trm response (HLA-A2.1 transgenic mice [3]): No
Patient response (human PBMC): Yes

GLSRIGMEV [15_neoA]
ELIspot (YES/NO) (HLA-A2.1 transgenic mice [1]): No
tetramer response (HLA-A2.1 transgenic mice [2]): high
Trm response (HLA-A2.1 transgenic mice [3]): No

GTSRIGMEV [15_neoB]
ELIspot (YES/NO) (HLA-A2.1 transgenic mice [1]): No
tetramer response (HLA-A2.1 transgenic mice [2]): high
Trm response (HLA-A2.1 transgenic mice [3]): No

KLADYNYKV [19_neoA]
ELIspot (YES/NO) (HLA-A2.1 transgenic mice [1]): Yes
tetramer response (HLA-A2.1 transgenic mice [2]): low
Patient response (human PBMC): Yes

KLKDCVMYA [20_wt]
ELIspot (YES/NO) (HLA-A2.1 transgenic mice [1]): No
tetramer response (HLA-A2.1 transgenic mice [2]): medium
Trm response (HLA-A2.1 transgenic mice [3]): Yes

KLSYGIATE [22_neoB]
ELIspot (YES/NO) (HLA-A2.1 transgenic mice [1]): No
tetramer response (HLA-A2.1 transgenic mice [2]): high
Trm response (HLA-A2.1 transgenic mice [3]): No

LALLLLDRL [23_wt]
ELIspot (YES/NO) (HLA-A2.1 transgenic mice [1]): Yes
tetramer response (HLA-A2.1 transgenic mice [2]): medium
Trm (response) (HLA-A2.1 transgenic mice [3]): Yes
Trm response (HLA-A2.1 transgenic mice [3]): Yes
Patient response (human PBMC): Yes

LLLDRLNQV [25_neoA]
ELIspot (YES/NO) (HLA-A2.1 transgenic mice [1]): Yes
tetramer response (HLA-A2.1 transgenic mice [2]): medium
Trm response (HLA-A2.1 transgenic mice [3]): No

LLLPQGTTV [29_neoA]
ELIspot (YES/NO) (HLA-A2.1 transgenic mice [1]): No
tetramer response (HLA-A2.1 transgenic mice [2]): medium
Trm (response) (HLA-A2.1 transgenic mice [3]): Yes
Trm response (HLA-A2.1 transgenic mice [3]): Yes
Patient response (human PBMC): Yes

LLLTILTSV [26_neoA]
ELIspot (YES/NO) (HLA-A2.1 transgenic mice [1]): Yes
tetramer response (HLA-A2.1 transgenic mice [2]): medium
Trm (response) (HLA-A2.1 transgenic mice [3]): Yes
Trm response (HLA-A2.1 transgenic mice [3]): Yes
Patient response (human PBMC): Yes

LLSAGIFGV [27_neoA]
ELIspot (YES/NO) (HLA-A2.1 transgenic mice [1]): Yes
tetramer response (HLA-A2.1 transgenic mice [2]): high
Trm (response) (HLA-A2.1 transgenic mice [3]): No
Trm response (HLA-A2.1 transgenic mice [3]): No
Patient response (human PBMC): Yes

LLTGRLQSV [24_neoA]
ELIspot (YES/NO) (HLA-A2.1 transgenic mice [1]): Yes
tetramer response (HLA-A2.1 transgenic mice [2]): high
Trm response (HLA-A2.1 transgenic mice [3]): No

LLWLIINLV [28_neoA]
ELIspot (YES/NO) (HLA-A2.1 transgenic mice [1]): Yes
tetramer response (HLA-A2.1 transgenic mice [2]): high
Trm (response) (HLA-A2.1 transgenic mice [3]): No
Trm response (HLA-A2.1 transgenic mice [3]): No
Patient response (human PBMC): Yes

LVSAGIFGV [27_neoB]
ELIspot (YES/NO) (HLA-A2.1 transgenic mice [1]): Yes
tetramer response (HLA-A2.1 transgenic mice [2]): high
Trm (response) (HLA-A2.1 transgenic mice [3]): Yes
Trm response (HLA-A2.1 transgenic mice [3]): Yes
Patient response (human PBMC): Yes

MLAKALRKV [30_wt]
ELIspot (YES/NO) (HLA-A2.1 transgenic mice [1]): Yes
tetramer response (HLA-A2.1 transgenic mice [2]): high
Trm (response) (HLA-A2.1 transgenic mice [3]): No
Trm response (HLA-A2.1 transgenic mice [3]): No
Patient response (human PBMC): Yes

MMISAGFSL [31_wt]
Patient response (human PBMC): Yes

NLIDSYFVV [32_wt]
ELIspot (YES/NO) (HLA-A2.1 transgenic mice [1]): Yes
tetramer response (HLA-A2.1 transgenic mice [2]): medium
Trm (response) (HLA-A2.1 transgenic mice [3]): Yes
Trm response (HLA-A2.1 transgenic mice [3]): Yes
Patient response (human PBMC): Yes

NLLKDCPAV [33_wt]
ELIspot (YES/NO) (HLA-A2.1 transgenic mice [1]): Yes
tetramer response (HLA-A2.1 transgenic mice [2]): medium
Trm response (HLA-A2.1 transgenic mice [3]): No

NLNESLIDL [34_wt]
ELIspot (YES/NO) (HLA-A2.1 transgenic mice [1]): No
tetramer response (HLA-A2.1 transgenic mice [2]): medium
Trm response (HLA-A2.1 transgenic mice [3]): No

QLEMELTPV [36_wt]
ELIspot (YES/NO) (HLA-A2.1 transgenic mice [1]): No
tetramer response (HLA-A2.1 transgenic mice [2]): medium
Trm (response) (HLA-A2.1 transgenic mice [3]): Yes
Trm response (HLA-A2.1 transgenic mice [3]): Yes
Patient response (human PBMC): Yes

RLMTWLDMV [37_neoA]
ELIspot (YES/NO) (HLA-A2.1 transgenic mice [1]): Yes
tetramer response (HLA-A2.1 transgenic mice [2]): high
Trm (response) (HLA-A2.1 transgenic mice [3]): No
Trm response (HLA-A2.1 transgenic mice [3]): No
Patient response (human PBMC): Yes

RLNEVAKNV [38_neoA]
ELIspot (YES/NO) (HLA-A2.1 transgenic mice [1]): No
tetramer response (HLA-A2.1 transgenic mice [2]): high
Trm response (HLA-A2.1 transgenic mice [3]): No

RLNQLESKV [39_neoA]
ELIspot (YES/NO) (HLA-A2.1 transgenic mice [1]): No
tetramer response (HLA-A2.1 transgenic mice [2]): medium
Trm response (HLA-A2.1 transgenic mice [3]): Yes

RTMTWLDMI [37_neoB]
ELIspot (YES/NO) (HLA-A2.1 transgenic mice [1]): Yes
tetramer response (HLA-A2.1 transgenic mice [2]): high
Trm (response) (HLA-A2.1 transgenic mice [3]): No
Trm response (HLA-A2.1 transgenic mice [3]): No
Patient response (human PBMC): Yes

SAPGVFCGV [41_neoB]
ELIspot (YES/NO) (HLA-A2.1 transgenic mice [1]): Yes
tetramer response (HLA-A2.1 transgenic mice [2]): high
Trm (response) (HLA-A2.1 transgenic mice [3]): No
Trm response (HLA-A2.1 transgenic mice [3]): No
Patient response (human PBMC): YES

SAWALIISV [42_neoB]
ELIspot (YES/NO) (HLA-A2.1 transgenic mice [1]): Yes
tetramer response (HLA-A2.1 transgenic mice [2]): high
Trm (response) (HLA-A2.1 transgenic mice [3]): Yes
Trm response (HLA-A2.1 transgenic mice [3]): Yes
Patient response (human PBMC): Yes

SLIAYTMSV [40_neoA]
ELIspot (YES/NO) (HLA-A2.1 transgenic mice [1]): Yes
tetramer response (HLA-A2.1 transgenic mice [2]): medium
Trm response (HLA-A2.1 transgenic mice [3]): No

SMWALIISV [42_wt]
ELIspot (YES/NO) (HLA-A2.1 transgenic mice [1]): Yes
tetramer response (HLA-A2.1 transgenic mice [2]): high
Trm (response) (HLA-A2.1 transgenic mice [3]): Yes
Trm response (HLA-A2.1 transgenic mice [3]): Yes
Patient response (human PBMC): Yes

VLFLHVTYV [48_neoA]
ELIspot (YES/NO) (HLA-A2.1 transgenic mice [1]): Yes
tetramer response (HLA-A2.1 transgenic mice [2]): high
Trm (response) (HLA-A2.1 transgenic mice [3]): No
Trm response (HLA-A2.1 transgenic mice [3]): No
Patient response (human PBMC): Yes

VLMAPISAV [46_neoA]
ELIspot (YES/NO) (HLA-A2.1 transgenic mice [1]): Yes
tetramer response (HLA-A2.1 transgenic mice [2]): medium
Trm response (HLA-A2.1 transgenic mice [3]): No

VLPTKLNDV [47_neoA]
ELIspot (YES/NO) (HLA-A2.1 transgenic mice [1]): No
tetramer response (HLA-A2.1 transgenic mice [2]): medium
Trm (response) (HLA-A2.1 transgenic mice [3]): Yes
Trm response (HLA-A2.1 transgenic mice [3]): Yes
Patient response (human PBMC): Yes

VSFLHVTYV [48_neoB]
ELIspot (YES/NO) (HLA-A2.1 transgenic mice [1]): Yes
tetramer response (HLA-A2.1 transgenic mice [2]): high
Trm (response) (HLA-A2.1 transgenic mice [3]): Yes
Trm response (HLA-A2.1 transgenic mice [3]): Yes
Patient response (human PBMC): Yes

VVFLHVTYV [48_wt]
ELIspot (YES/NO) (HLA-A2.1 transgenic mice [1]): Yes
tetramer response (HLA-A2.1 transgenic mice [2]): high
Trm (response) (HLA-A2.1 transgenic mice [3]): No
Trm response (HLA-A2.1 transgenic mice [3]): No
Patient response (human PBMC): Yes

WLMWLIINL [49_wt]
ELIspot (YES/NO) (HLA-A2.1 transgenic mice [1]): No
tetramer response (HLA-A2.1 transgenic mice [2]): high
Trm response (HLA-A2.1 transgenic mice [3]): No

YLMADLVYT [55_neoB]
ELIspot (YES/NO) (HLA-A2.1 transgenic mice [1]): Yes
tetramer response (HLA-A2.1 transgenic mice [2]): medium
Trm response (HLA-A2.1 transgenic mice [3]): No

YLNSTNVTV [51_neoA]
ELIspot (YES/NO) (HLA-A2.1 transgenic mice [1]): Yes
tetramer response (HLA-A2.1 transgenic mice [2]): high
Trm response (HLA-A2.1 transgenic mice [3]): Yes

YLYALVYFV [54_neoA]
ELIspot (YES/NO) (HLA-A2.1 transgenic mice [1]): Yes
tetramer response (HLA-A2.1 transgenic mice [2]): high
Trm response (HLA-A2.1 transgenic mice [3]): Yes

l_neoA (ALNTLVKQV)
ELIspot (YES/NO) (HLA-A2.1 transgenic mice [1]): Yes
tetramer response (HLA-A2.1 transgenic mice [2]): high
Trm (response) (HLA-A2.1 transgenic mice [3]): Yes
Trm response (HLA-A2.1 transgenic mice [3]): Yes
Patient response (human PBMC): Yes

— US20230181721A1 (priority 2020, published 2023)
